According to patent US20250034182A1, “PHOSPHOLIPID COMPOUNDS AND METHODS OF MAKING AND USING THE SAME” (priority 2021, published 2025):

How the values were obtained:
Assay type in all cases: cell-based
[1] = test system: Respiratory syncytial virus recombinant with luciferase (RSV-Luc5) in HEp-2 cells; test: HEp-2 RSV-Luc5 384-well assay (EC50 RSVFLUC Hep2-384 v2, Example V); details: human respiratory syncytial virus, HEp-2, 72 h, read-out: RSV Hep-2 FLuc EC50 (v2) (nM) (per Ex. V)
How it was run: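 HEp-2 cells (4,000/well) infected with RSV-Luc5 at MOI 0.5 in DMEM/10% FBS with compound, 10-point 1:3 dilutions, 3 days at 37 °C. Replication read by One-Glo luminescence, normalized to remdesivir (0%) and DMSO (100%). EC50 from non-linear regression as concentration giving 50% reduction.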

[2] = RSV NHBE CC50 384 V2 (per Ex. U); details: human
[3] = test system: Human Rhinovirus 14 (HRV14) in H1-HeLa cells; test: H1-HeLa HRV-CTG EC50, HRV14 (Example Z); details: Rhinovirus B, HRV14, 96 h, MOI 1.0, 4 days, Celltiter-Glo, read-out: HRV14 HELA EC50 (nM) (per Ex. Z)
From the text: (§1) H1-Hela cell line (ATCC, Manassas, VA, Cat #CRL-1958) was maintained in Dulbecco's […] (DMEM) (Corning, New York, NY, Cat #15-018CM) supplemented with 10% fetal bovine serum (FBS) (Hyclone, Logan, UT, Cat #SH30071-03), and 1× Penicillin-Streptomycin-L-Glutamine (Coming, New York, NY, Cat #30-009-C1). Cells were passaged 2 times per week to maintain sub-confluent densities and were used for experiments at passage 5-30. The Human Rhinovirus 1B (HRV1B) (ATCC, Manassas, VA, Cat #VR-1645), Human Rhinovirus 14 (HRV14) (ATCC, Manassas, VA, Cat #VR-284), and Human Rhinovirus 16 (HRV16) (ATCC, Manassas, VA, Cat #BR-283) was obtained through ATCC. Viral infection was monitored by determining viability of H1-HeLa cells as described below.
(§2) Test molecules are prepared in 100% DMSO in 384-well polypropylene plates (Greiner, Monroe, NC, Cat #784201) with 8 compounds per plate in grouped replicates of 4 at 10 serially diluted concentrations (1:3). The serially diluted compounds were transferred to low dead volume Echo plates (Labcyte, Sunnyvale, CA, Cat #LP-0200).
(§3) The test compounds were spotted to 384-well assay plates (Greiner, Monroe, NC, Cat #781091) at 200 nL per well using an Echo acoustic dispenser (Labcyte, Sunnyvale, CA). H1-HeLa cells were harvested and suspended in DMEM (supplemented with 2% FBS and 1× Penicillin-Streptomycin-L-Glutamine) and seeded to the pre-spotted assay plates at 5,000 cells per well in 30 μL. HRV1B, HRV14, and HRV16 was diluted in DMEM (supplemented with 2% FBS and 1× Penicillin-Streptomycin-L-Glutamine) at 97.1 million Infectious Units (IU) per mL, 151 million IU per mL and 221 million IU per mL respectively. 10 μL of virus per well was added to the assay plates containing cells and compounds, for an MOI of 0.5, 1.0, and 0.25 respectively. The assay plates were incubated for 4 days at 37° C. and 5% CO2. At the end of incubation, Celltiter-Glo (Promega, Madison, WI, Cat #G7573) was prepared. The assay plates and Celltiter-Glo reagent were equilibrated to room temperature for at least 15 minutes. 40 μL per well of Celltiter-Glo reagent was added and the plates were incubated at room temperature for 15 minutes before reading the luminescence signal on an EnVision multimode plate reader (Perkin Elmer, Waltham, MA). Rupintrivir was used as positive control and DMSO was used as negative control. Values were normalized to the positive and negative controls (as 0% and 100% replication, respectively) and data was fitted using non-linear regression analysis by Gilead's dose response tool. The EC50 value for each compound was defined as the concentration reducing viral replication by 50%.

[4] = test system: Human Rhinovirus 16 (HRV16) in H1-HeLa cells; test: H1-HeLa HRV-CTG EC50, HRV16 (Example Z); details: Rhinovirus A, HRV16, 96 h, MOI 0.25, 4 days, Celltiter-Glo, read-out: HRV 16 HELA EC50 (nM) (per Ex. Z)
From the text: as §1, §2, §3

[5] = test system: Human Rhinovirus 1B (HRV1B) in H1-HeLa cells; test: H1-HeLa HRV-CTG EC50, HRV1B (Example Z); details: Rhinovirus A, 96 h, MOI 0.5, 4 days, Celltiter-Glo, read-out: HRV 1B HELA EC50 (nM) (per Ex. Z)
From the text: as §1, §2, §3

Row | SMILES | EC50 [1] | CC50 at 3 days [2] | EC50 [3] | EC50 [4] | EC50 [5]
1 | CCCCCCCCCCCCCCCCOC[C@@H](COP(=O)(O)OC[C@@]1(C#N)O[C@@H](c2ccc3c(N)ncnn23)[C@H](O)[C@@H]1O)OCc1cc(F)cc(C#N)c1 [Compound 88, ((2R,3S,4R,5S)-5-(4-aminopyrrolo[2,1-f][1,2,4]triazin-7-yl)-2-cyano-3,4-dihydroxytetrahydrofuran-2-yl)methyl ((S)-2-((3-cyano-5-fluorobenzyl)oxy)-3-(hexadecyloxy)propyl) hydrogen phosphate] | 191 nM | 7530 nM |  |  | 
2 | CCCCCCCCCCCCCCCCC[C@H](COP(=O)(O)OC[C@@]1(C#N)O[C@@H](c2ccc3c(N)ncnn23)[C@H](O)[C@@H]1O)OCc1cc(Cl)cc(C#N)c1 [Compound 76, ((2R,3S,4R)-5-(4-aminopyrrolo[2,1-f][1,2,4]triazin-7-yl)-2-cyano-3,4-dihydroxytetrahydrofuran-2-yl)methyl ((R)-2-((3-chloro-5-cyanobenzyl)oxy)nonadecyl) hydrogen phosphate] | 382 nM | 3550 nM |  |  | 
3 | CCCCCCCCCCCCCCCCCCC[C@H](COP(=O)(O)OC[C@@]1(C#N)O[C@@H](c2ccc3c(N)ncnn23)[C@H](O)[C@@H]1O)Oc1ccc(C#N)c(OC(C)C)c1 [Compound 38, ((2R,3S,4R,5S)-5-(4-aminopyrrolo[2,1-f][1,2,4]triazin-7-yl)-2-cyano-3,4-dihydroxytetrahydrofuran-2-yl)methyl ((R)-2-(4-cyano-3-isopropoxyphenoxy)henicosyl) hydrogen phosphate] | 212 nM | 7990 nM | 28 nM | 29 nM | 12 nM
4 | CCCCCCCCCCCCCCCCCCC[C@H](COP(=O)(O)OC[C@@]1(C#N)O[C@@H](c2ccc3c(N)ncnn23)[C@H](O)[C@@H]1O)OCc1ccc(-n2cncn2)c(C#N)c1 [Compound 30, ((2R,3S,4R)-5-(4-aminopyrrolo[2,1-f][1,2,4]triazin-7-yl)-2-cyano-3,4-dihydroxytetrahydrofuran-2-yl)methyl ((R)-2-((3-cyano-4-(1H-1,2,4-triazol-1-yl)benzyl)oxy)henicosyl) hydrogen phosphate] | 115 nM | 1720 nM | 12 nM | 11 nM | 7 nM
5 | CCCCCCCCCCCCCCOC[C@H](COP(=O)(O)OC[C@@]1(C#N)O[C@@H](c2ccc3c(N)ncnn23)[C@H](O)[C@@H]1O)OCc1ccc(C#N)cc1F [Compound 75, ((2R,3S,4R,5S)-5-(4-aminopyrrolo[2,1-f][1,2,4]triazin-7-yl)-2-cyano-3,4-dihydroxytetrahydrofuran-2-yl)methyl ((R)-2-((4-cyano-2-fluorobenzyl)oxy)-3-(tetradecyloxy)propyl) hydrogen phosphate] | 446 nM | 4620 nM | 37 nM | 37 nM | 23 nM
6 | CCCCCCCCCCCCCCCCCCCC[C@H](COP(=O)(O)OC[C@@]1(C#N)O[C@@H](c2ccc3c(N)ncnn23)[C@H](O)[C@@H]1O)Oc1cccc(C#N)c1 [Compound 51, ((2R,3S,4R,5S)-5-(4-aminopyrrolo[2,1-f][1,2,4]triazin-7-yl)-2-cyano-3,4-dihydroxytetrahydrofuran-2-yl)methyl ((R)-2-(3-cyanophenoxy)docosyl) hydrogen phosphate] | 436 nM | 8330 nM | 49 nM | 34 nM | 33 nM
7 | CCCCCCCCCCCCCCCCCCOC[C@H](COP(=O)(O)OC[C@@]1(C#N)O[C@@H](c2ccc3c(N)ncnn23)[C@H](O)[C@@H]1O)OCc1ccc(C#N)cc1OC [Compound 73, ((2R,3S,4R)-5-(4-aminopyrrolo[2,1-f][1,2,4]triazin-7-yl)-2-cyano-3,4-dihydroxytetrahydrofuran-2-yl)methyl ((R)-2-((4-cyano-2-methoxybenzyl)oxy)-3-(octadecyloxy)propyl) hydrogen phosphate] | 104 nM | 3820 nM | 26 nM | 29 nM | 12 nM
8 | CCCCCCCCCCCCCCCCCCCC[C@@H](COP(=O)(O)OC[C@@]1(C#N)O[C@@H](c2ccc3c(N)ncnn23)[C@H](O)[C@@H]1O)OCc1cc(F)cc(C#N)c1 [Compound 70, ((2R,3S,4R)-5-(4-aminopyrrolo[2,1-f][1,2,4]triazin-7-yl)-2-cyano-3,4-dihydroxytetrahydrofuran-2-yl)methyl ((S)-2-((3-cyano-5-fluorobenzyl)oxy)docosyl) hydrogen phosphate] | 1770 nM | 3950 nM | 162 nM | 114 nM | 84 nM
9 | CCCCCCCCCCCCCCCCCCOC[C@H](COP(=O)(O)OC[C@@]1(C#N)O[C@@H](c2ccc3c(N)ncnn23)[C@H](O)[C@@H]1O)Oc1cccc(C#N)n1 [Compound 21, ((2R,3S,4R,5S)-5-(4-aminopyrrolo[2,1-f][1,2,4]triazin-7-yl)-2-cyano-3,4-dihydroxytetrahydrofuran-2-yl)methyl ((R)-2-((6-cyanopyridin-2-yl)oxy)-3-(octadecyloxy)propyl) hydrogen phosphate] | 222 nM | 3350 nM | 60 nM | 50 nM | 35 nM
10 | CCCCCCCCCCCCCCCCCC[C@H](COP(=O)(O)OC[C@@]1(C#N)O[C@@H](c2ccc3c(N)ncnn23)[C@H](O)[C@@H]1O)OCc1cc(F)cc(C#N)c1 [Compound 84, ((2R,3S,4R,5S)-5-(4-aminopyrrolo[2,1-f][1,2,4]triazin-7-yl)-2-cyano-3,4-dihydroxytetrahydrofuran-2-yl)methyl ((R)-2-((3-cyano-5-fluorobenzyl)oxy)icosyl) hydrogen phosphate] | 325 nM | 24500 nM |  |  | 
11 | CCCCCCCCCCCCCCCCCC[C@H](COP(=O)(O)OC[C@@]1(C#N)O[C@@H](c2ccc3c(N)ncnn23)[C@H](O)[C@@H]1O)OCc1cc(Cl)cc(C#N)c1 [Compound 81, ((2R,3S,4R,5S)-5-(4-aminopyrrolo[2,1-f][1,2,4]triazin-7-yl)-2-cyano-3,4-dihydroxytetrahydrofuran-2-yl)methyl ((R)-2-((3-chloro-5-cyanobenzyl)oxy)icosyl) hydrogen phosphate] | 445 nM | 2480 nM |  |  | 
12 | CCCCCCCCCCCCCCCCCCC[C@H](COP(=O)(O)OC[C@@]1(C#N)O[C@@H](c2ccc3c(N)ncnn23)[C@H](O)[C@@H]1O)OCc1cc(Cl)cc(C#N)c1 [Compound 82, ((2R,3S,4R,5S)-5-(4-aminopyrrolo[2,1-f][1,2,4]triazin-7-yl)-2-cyano-3,4-dihydroxytetrahydrofuran-2-yl)methyl ((R)-2-((3-chloro-5-cyanobenzyl)oxy)henicosyl) hydrogen phosphate] | 1250 nM | 6120 nM |  |  | 
13 | CCCCCCCCCCCCCCCCCCOC[C@H](COP(=O)(O)OC[C@@]1(C#N)O[C@@H](c2ccc3c(N)ncnn23)[C@H](O)[C@@H]1O)OCc1ccc(C#N)nc1 [Compound 19, ((2R,3S,4R,5S)-5-(4-aminopyrrolo[2,1-f][1,2,4]triazin-7-yl)-2-cyano-3,4-dihydroxytetrahydrofuran-2-yl)methyl ((R)-2-((6-cyanopyridin-3-yl)methoxy)-3-(octadecyloxy)propyl) hydrogen phosphate] | 60 nM |  |  |  | 
